In patent US8980832B2, “Use of fumaric acid derivatives for treating cardiac insufficiency, and asthma” (Biogen Idec International GmbH, priority 2003, dated 2015):
Where a name gives a salt, the structure may show the parent alone.

Key:
[1] = tested on: rat model of acute ischemia and reperfusion; test: acute ischemia and reperfusion model of the rat, size of the infarction; format: in vivo; conditions: 10 mg dimethyl fumarate in 0.02% DMSO iv at beginning of first occlusion; 45 min ischemia, 120 min reperfusion; vs control
Protocol: The effects of dimethyl fumarate were examined in the present experiment using the model of acute ischemia and reperfusion of the rat. For this purpose, healthy, male rats were divided into three groups with 17 animals each. In the tests, an ischemia was caused for 45 minutes through an occlusion of an artery with the heart being exposed and, subsequently, reperfusion was carried out for 120 minutes. Finally, a myocardial infarction was triggered by means of a reocclusion and the risk area was determined by means of dyeing with phthalocyanine blue. The administration of the test substance was carried out iv at the beginning of the first occlusion. The control group received 0.02% DMSO (0.5 ml/kg body weight), the DMF group received 10 mg dimethyl fumarate in 0.02% DMSO (0.5 ml/kg body weight). The animals were ischemically preconditioned in the second group (2 times 5 minutes each ischemia and reperfusion). The results are represented in FIG. 1.

[2] = tested on: BSM (bronchial smooth muscle) cells; test: inhibition of the PDGF-induced incorporation of 3H-thymidine in BSM cells (Example B); format: cell-based; conditions: 10^-5 M dimethyl fumarate; 0, 1, 5, 10 and 20 ng/ml PDGF; 24 h 3H-thymidine
Protocol: BSM (bronchial smooth muscle) cells were cultivated in RPMI, 0.3% albumin and 0.1% DMSO at 37° C. in the presence of 0, 1, 5, 10 and 20 ng/ml on PDGF with and without 10^−5 M dimethyl fumarate.
After a predetermined period of time, 5 μCi on ^3H-thymidine was added to the culture medium and incubation was continued for further 24 hours. The incorporation was finally stopped by means of centrifugation, removal of the supernatant, washing and lysis of the cells. The incorporation on ^3H-thymidine was measured by determining the radioactivity in the lysates in a liquid scintillation device in comparison to the control. The results are shown in FIG. 2 as percentage values as compared with the control (100%).

[3] = tested on: Bronchial smooth muscle cells; test: PDGF-stimulated proliferation of bronchial smooth muscle cells, 3H-thymidine (Example C); format: cell-based; conditions: 10 ng/ml PDGF; 10^-5 M DMF; 36 h treatment + 8 h 3H-thymidine
Protocol: Bronchial smooth muscle cells were grown in 96 well plates until they reached 60-70% confluency. The cells were then starved for 48 h in serum free, 0.3% albumine containing RPMI medium. […] As a control untreated cells (buffer only) were used. Cells were treated for 36 h, whereafter 4 μCi of ^3H-thymidine was added for further 8 hours. The cells were lysed, DNA-incorporated ^3H-thymidine bound to filter membranes, and the incorporated cpm measured in a liquid scintillation device.

Dahl-rats = test: left ventricular enddiastolic diameter in Dahl rats on high salt diet, echocardiography; format: in vivo, rat; conditions: 2x5 and 2x15 mg DMF/kg/d, 8 weeks of high salt diet
Protocol: Dahl-rats, which are salt sensitive, were administered varying dosages of DMF on a daily basis and put on a high salt diet. After 8 weeks of treatment the left ventricular enddiastolic diameters were measured for test and control groups by echocardiographic analysis. Groups measured were control (0 mg DMF; n=9); group 1 (2×5 mg DMF/kg/d; n=9) and group 2 (2×15 mg DMF/kg/d; n=11). […] Specifically, in the DMF groups the inner diameter of the left ventricle remained in the same range as at baseline (see FIG. 4). […] Importantly, dilatation of the left ventricle marks the transition from compensated hypertrophy to decompensated heart failure. Consequently, DMF delays the transition to heart failure, and thus prevents myocardial infarctions.

Compound: COC(=O)/C=C/C(=O)OC [DMF, dimethyl fumarate]
- size of the infarction [1]: limited the size of the infarction to a statistically significant degree
- PDGF-induced 3H-thymidine incorporation [2]: this increase is significantly reduced
- cell proliferation, percentage of control (100%) [3]: 116±4%
- dilatation of the left ventricle (left ventricular enddiastolic diameter) (Dahl-rats): prevented the dilatation of the left ventricle after 8 weeks of high salt diet in dose dependent manner
